Reference: patent US20120108624A1, “TREATMENT OF DYSKINESIA RELATED DISORDERS” (priority 2009, published 2012)
Counter-ions that a name gives are not always drawn.

Legend:
[1] = tested on: rats with unilateral 6-OHDA lesions; experiment: 6-OHDA rat model (rotation response); assay type: in vivo; conditions: rotation in unilateral 6-OHDA rats; for D1/D2 ratio: MED and MED to overcome Nemonapride block
From the text: Dopamine agonists can have activity at either the D1 receptors, the D2 receptors, or both. The rotation response in rats with unilateral 6-OHDA lesions can be used to assess compounds for their ability to stimulate both receptor types and induce rotation (Ungerstedt and Arbuthnott, Brain Res., 1970, 24, 485; Setler, et al. Eur. J. Pharmacol., 1978, 50(4), 419; and Ungerstedt, et al. “Advances in Dopamine Research” (Kohsaka, Ed.), Pergamon Press, 1982, Oxford, p. 219). 6-OHDA (6-hydroxydopamine) is a neurotoxin used by neurobiologists to selectively kill dopaminergic neurons at the site of injection in the brain in experimental animals. In the 6-OHDA model, the nigrostraital dopamine cells are destroyed on one side of the brain (unilateral) by injecting 6-OHDA into the median forebrain bundle, located in front of the substantia nigra. This unilateral injection combined with stimulation by dopamine agonists such as apomorphine will induce rotation behaviour as only one side of the brain is stimulated. Experiments consist of determining a minimum effective dose (MED) to induce rotation for the compound in question. Once a MED has been determined, a second experiment is performed to determine the MED of the compound to overcome Nemonapride block (MEDNemonapride). Nemonapride is a D2 antagonist that blocks the D2 receptor, therefore any observed rotations would be dependent upon activity at the D1 receptor. Finally, once the MEDNemonapride is known a third experiment is run using the MEDNemonapride dose and observing the effect of the D1 antagonist, SCH 23390 alone, the D2 antagonist, Nemonapride alone and finally, the effect of combined treatment with SCH 23390 and Nemonapride. […] This model was validated using apomorphine as the proof-of-principle compound for mixed D1/D2 agonists.
Dopamine agonists can have activity at either the D1 receptors, the D2 receptors, or both. The rotation response in rats with unilateral 6-OHDA lesions can be used to assess compounds for their ability to stimulate both receptor types and induce rotation (Ungerstedt and Arbuthnott, Brain Res. 24, 485 (1970); Setler, et al., Eur. J. Pharmacol., 50(4), 419 (1978); and Ungerstedt, et al., “Advances in Dopamine Research” (Kohsaka, Ed.), Pergamon Press, 1982, Oxford, p. 219). 6-OHDA (6-hydroxydopamine) is a neurotoxin used by neurobiologists to selectively kill dopaminergic neurons at the site of injection in the brain in experimental animals. In the 6-OHDA model the nigrostraital dopamine cells are destroyed on one side of the brain (unilateral) by injecting 6-OHDA into the median forebrain bundle, located in front of the substantia nigra. […] Once a MED has been determined, a second experiment is performed to determine the MED of the compound to overcome Nemonapride block (MEDNemonapride). […]

[2] = tested on: Sprague Dawley rats with unilateral 6-OHDA lesions; experiment: Induction of dyskinesia model with naive 6-OHDA rats (AIMS); assay type: in vivo, rat; conditions: once daily s.c. for 14 days, scored up to day 12
Experimental: Twenty male Sprague Dawley rats with unilateral 6-OHDA lesions were used to test induction of dyskinesia by compound 10 (administered subcutaneously; n=7; group 1) compared to L-DOPA/benserazide (6 mg/kg / 15 mg/kg subcutaneously; n=7; group 2) and apomorphine (1 mg/kg subcutaneously; n=6; group 3). Benserazide is a DOPA decarboxylase inhibitor which is unable to cross the blood-brain barrier; it is used to prevent metabolism of L-DOPA to dopamine outside the brain. Three weeks after 6-OHDA surgery, the animals were tested for their rotation response induced by 2.5 mg/kg amphetamine, which induces ipsilateral circling (amphetamine increases the level dopamine in the brain via the intact neurons on the unlesioned side causing the animals to rotate in the opposite direction as compared to their response to direct agonists such as L-DOPA and apomorphine that act predominantly on the lesioned side of the brain). […] Rats where then randomly allocated to the three treatment groups balancing the groups for the animals' rotation response on amphetamine.
Rats received drug for 14 consecutive days and were scored on days 1, 2, 3, 4, 5, 8, 10 and 12. […] Following this experiment all rats were given subcutaneous injections of compound 10 from day 15-19 in order to determine how Example I influenced the severity of dyskinesia seen in the apomorphine and L-DOPA groups. Dykinesia scoring was performed on day 19 of the experiment (corresponding to 5 days on compound 10).

[3] = Conversion into the active metabolite upon in-vivo administration
[4] = tested on: rats with unilateral 6-OHDA lesions; experiment: Dyskinesia profile in rats with unilateral 6-OHDA lesions (summary statements); assay type: in vivo, rat; conditions: for induction of dyskinesias compared with L-DOPA and apomorphine / reduction of L-DOPA induced dyskinesias compared with D2 agonists (pramipexole): rats with unilateral 6-OHDA lesions
[5] = tested on: 'parkinsonian' rats (6-OHDA rats); experiment: Dyskinesia rat model, Example 3 (AIMs, test drug vs. L-DOPA/benserazide); assay type: in vivo
Experimental: A rat dyskinesia model reported in the literature (Lundblad, et al., Eur. J Neurosci., 2002, 15, 120) was used to examine the effects of the active metabolite vs. L-DOPA/benserazide with respect to dyskinesias that were assessed as abnormal involuntary movements (AIMs) in ‘parkinsonian’ rats.
0-180 min. Animals were scored for dyskinesias.
At days 1, 3, 5, 8 and 12, animals were scored according to AIM-scoring by recording dyskinesias using the Abnormal Involuntary Movement Scale (AIMS) as described previously (Lundblad, et al., Eur. J Neurosci., 2002, 15, 120). Days 15-26: Group A animals were treated with the test drug (as group B) instead of L-DOPA/benserazide. Day 15, 16, 17, 19, 22, 24 and 26: Animals scored according AIM-scoring.

MPTP treated marmosets = experiment: Anti-Parkinsonian effects in MPTP-treated common marmosets; assay type: in vivo, common marmoset; conditions: dosed p.o.
Experimental: (§1) The experiments were conducted using 6 MPTP treated marmosets (2.0 mg/kg daily for up to 5 consecutive days dissolved in sterile 0.9% saline solution). All the animals had previously been treated with L-DOPA (12.5 mg/kg p.o., plus carbidopa 12.5 mg/kg p.o.) administered daily for up to 30 days in order to induce dyskinesia. […] Domperidone was administered 60 min before any of the test compounds. Domperidone is an anti-dopaminergic drug that suppresses nausea and vomiting. Locomotor Activity was assessed using test cages that are comprised of 8 photo-electric switches comprised of 8 infra-red beams which are strategically placed in the cage and interruption of a beam is recorded as one count. […] The assessment of motor disability was performed by a trained observer blinded to the treatment.
as §1, with “antidopaminergic” for “anti-dopaminergic”
as §1, with “compounds.” for “compounds. Domperidone is an anti-dopaminergic drug that suppresses nausea and vomiting.”

'parkinsonian' rats = experiment: Dyskinesia rat model, Example 4 (AIMs, Compound 12 vs. L-DOPA/Benserazide); assay type: in vivo
Experimental: A rat dyskinesia model reported in the literature (Lundblad, et al., Eur. J Neurosci., 2002, 15, 120) was used to examine the effects of Compound 12 vs. L-DOPA/Benserazide with respect to dyskinesias that were assessed as abnormal involuntary movements (AIMs) in ‘parkinsonian’ rats.
Throughout the study animals received L-DOPA/Benserazide (6 mg/kg and 15 mg/kg subcutaneous) or Compound 12 (group B) once daily at t=−20 min. 0-180 min. Animals were scored for dyskinesias. Days 1-14: All animals were dosed with L-DOPA/Benserazide (group A) or Compound 12 (group B).
At days 1, 3, 5, 8 and 12, animals were scored according to AIM-scoring by recording dyskinesias using the Abnormal Involuntary Movement Scale (AIMS) as described previously. Days 15-26: Group A animals were treated with Compound 12 (as group B) instead of L-DOPA/Benserazide. Day 15, 16, 17, 19, 22, 24 and 26: Animals scored according AIM-scoring.

[6] = tested on: mouse model of severe dopamine depletion; experiment: Superiority model (MPTP mice treated with AMPT, motility); assay type: in vivo; conditions: AMPT 250 mg/kg s.c., last 1 hour of recorded data
Experimental: On the day of the experiment, mice were treated with AMPT (250 mg/kg subcutaneously) and then returned to their home cages for 1.5 hours after which they were placed in individual cages in the motility unit. AMPT (alpha-methyl-p-tyrosine) is a drug that temporarily reduces brain catecholamine activity (in this case especially dopamine levels). […] Various dopaminergic compounds were tested for their ability to reverse the motility deficits produced in this model. […] Benserazide is a DOPA decarboxylase inhibitor which is unable to cross the blood-brain barrier; it is used to prevent metabolism of L-DOPA to dopamine outside the brain.
On the day of the experiment, mice were treated with AMPT (250 mg/kg subcutaneously) and then returned to their home cages for 1.5 hours after which they are placed in individual cages in the motility unit. AMPT (alpha-methyl-p-tyrosine) is a drug that temporarily reduces brain catecholamine activity (in this case especially dopamine levels). […] Various dopaminergic compounds are tested for their ability to reverse the motility deficits produced in this model. […] Benserazide is a DOPA decarboxylase inhibitor which is unable to cross the blood-brain barrier; it is used to prevent metabolism of L-DOPA to dopamine outside the brain.
On the day of the experiment, mice were treated with AMPT (250 mg/kg subcutaneously) and then returned to their home cages for 1.5 hours after which they were placed in individual cages in the motility unit. AMPT (alpha-methyl-p-tyrosine) is a drug that temporarily reduces brain catecholamine activity (in this case especially dopamine levels). […] Various dopaminergic compounds were tested for their ability to reverse the motility deficits produced in this model. […] Benserazide is a DOPA decarboxylase inhibitor which is unable to cross the blood-brain barrier; it was used to prevent metabolism of L-DOPA to dopamine outside the brain.

| SMILES | dyskinesia scores (AIMS) [2] | D1/D2 ratio [1] | conversion into active metabolite (Compound 10) [3] | induction of dyskinesias compared with L-DOPA and apomorphine [4] | reduction of L-DOPA induced dyskinesias compared with D2 agonists (pramipexole) [4] | duration of reversal of motor disability compared to L-DOPA (MPTP treated marmosets) | efficacy compared to L-DOPA (MPTP treated marmosets) | locomotor activity and motor disability (MPTP treated marmosets) | reversal of motility deficits / restoration of locomotion [6] | further results |
| --- | --- | --- | --- | --- | --- | --- | --- | --- | --- | --- |
| CCCN1CCC[C@@H]2Cc3c(ccc(O)c3O)C[C@H]21 [Compound 10, (4aR,10aR)-1-Propyl-1,2,3,4,4a,5,10,10a-octahydro-benzo[g]quinoline-6,7-diol hydrobromide] | about 30 |  |  |  |  |  |  |  |  | duration of action [1]: ca. 18 h |
| CCCN1CCC[C@@H]2Cc3c(ccc4c3OCO4)C[C@H]21 [Compound 11, (6aR,10aR)-7-n-Propyl-6,6a,7,8,9,10,10a,11-octahydro-1,3-dioxa-7-aza-cyclopenta[a]anthracene hydrochloride] |  | about 2 | Convert into the Catechol-Containing Active Metabolite | induce less dyskinesias than L-DOPA and apomorphine | reduce L-DOPA induced dyskinesias more effectively than D2 agonists | prolonged reversal of motor disability | as efficacious as L-DOPA | dose-related increases in locomotor activity and reversal of motor disability |  | reversal of dyskinesias induced by L-DOPA/benserazide and apomorphine ([4]; rats lesioned with 6-OHDA): reversed dyskinesias; dyskinesia scores (AIMS) ([5]; after eight days of once daily treatment, constant until day 12): 2-4; induction of dyskinesia compared with L-DOPA ([5]; days 1-14): significantly less dyskinesia than L-DOPA; reduction of the dyskinesias induced by L-DOPA ([5]; group A shifted from L-dopa/benserazide to the test drug, days 15-26): able to reduce the dyskinesias induced by L-DOPA |
| CCCN1CCC[C@@H]2CC3=C(CCCC3=O)C[C@H]21 [Compound 12, (4aR,10aR)-1-n-propyl-2,3,4,4a,5,7,8,9,10,10a-decahydro-1H-benzo[g]quinolin-6-one] |  |  | Convert into the Catechol-Containing Active Metabolite | induces less dyskinesias than L-DOPA and apomorphine | reduces L-DOPA induced dyskinesias more effectively than D2 agonists | prolonged reversal of motor disability | as efficacious as L-DOPA | dose-related increases in locomotor activity and reversal of motor disability |  | dyskinesia scores (AIMS) ('parkinsonian' rats; after eight days of once daily treatment): 10-25; dyskinesia scores (AIMS) after shifting group A from L-DOPA/benserazide ('parkinsonian' rats; compound 12 for 10 days after L-DOPA/benserazide): 30-35; induction of dyskinesia compared with L-DOPA ('parkinsonian' rats; days 1-14): significantly less dyskinesia than L-DOPA; reduction of the dyskinesias induced by L-DOPA ('parkinsonian' rats; group A shifted to compound 12, days 15-26): able to reduce the dyskinesias induced by L-DOPA |
| N[C@@H](Cc1ccc(O)c(O)c1)C(=O)O [L-DOPA] | about 70 |  |  |  |  |  |  | increased locomotor activity and reversed motor disability | able to reverse motility deficits |  |
| CN1CCc2cccc3c2[C@H]1Cc1ccc(O)c(O)c1-3 [apomorphine] | about 70 | about 3 |  |  |  |  |  |  | restored locomotion | reversal of motility deficits / restoration of locomotion ([6]; listed as Apomorphine): able to reverse motility deficits |
| CCCN(CCc1cccs1)[C@H]1CCc2c(O)cccc2C1 [rotigotine, reference compound] |  |  |  |  |  |  |  |  |  | D1 component [1]: could not be observed |
